How the values were obtained:
Format in all cases: binding, mouse
mIgG G7-12 = assay: inhibition ELISA: oligosaccharide inhibits fixation of mIgG G7-12 on LPS 3a; conditions: concentration of oligosaccharide giving 50% inhibition of fixation of the mAb on LPS 3a (S. flexneri 3a)
Protocol: (§1) The oligosaccharide determinants recognized by the four mAbs obtained were characterized by measuring, by inhibition ELISA, the interaction of the various oligosaccharides synthesized with these mAbs.
(§2) 1) First, a standard curve OD=f(concentration of the mAb) was established for each antibody.
(§3) For this, purified LPS from S. flexneri 3a was fixed in the wells of ELISA plates (96-well plate), at a concentration of 25 μg/ml in a carbonate buffer pH 9.6, at 4° C., overnight.
(§4) After washing the wells with a solution of PBS/ Tween 20 (0.05%) 1% and a stage of saturation with PBS/BSA 1% for 30 minutes at 4° C., various concentrations of each mAb were incubated for 30 minutes at 4° C. After a washing stage, a secondary antibody coupled to alkaline phosphatase and specific to the mouse IgGs or IgMs was added at a dilution of 1/5000 (Sigma-Aldrich) for 1 h at 37° C. After washing, the enzymatic reaction was carried out with the specific substrate of alkaline phosphatase (12 mg of p-nitrophenylphosphate in 1.2 ml of Tris-HCl buffer 1M (pH 8.8) and 10.8 ml of 5M NaCl). Once the color reaction had developed, the plates were read at 405 nm (Dynatech MR 4000 plate reader). The standard curve OD =f(Ab concentration) was refined with the equation Y=aX2+bX+c, where Y corresponds to the OD and X to the antibody concentration. A correlation factor (r2) of 0.99 was generally obtained.
(§5) 2) The concentration of oligosaccharide capable of inhibiting 50% of the fixation of the mAb on LPS 3a was then determined as follows.
(§6) Each mAb was used at a given concentration, defined as the first concentration tested giving a maximum OD on the standard curve (the first point at the start of the plateau of the curve). Various concentrations of each of the oligosaccharides to be tested were then incubated separately with the mAb at constant concentration, overnight at 4° C., in 1% PBS-BSA buffer. Measurement of the free antibody concentration was carried out as stated above, after incubation of the mAb/oligosaccharide mixtures at 4° C. for 30 minutes on plates covered with LPS 3a and using the standard curve obtained in parallel on the same plate. For each mAb and each oligosaccharide, a value called IC50 was then calculated, corresponding to the concentration of oligosaccharide permitting 50% inhibition of the fixation of the mAb on LPS 3a.

mIgG C7-37 = assay: inhibition ELISA: oligosaccharide inhibits fixation of mIgG C7-37 on LPS 3a; conditions: concentration of oligosaccharide giving 50% inhibition of fixation of the mAb on LPS 3a (S. flexneri 3a)
Protocol: as §1, §2, §3, §4, §5, §6

IgM (G 19-2) = assay: inhibition ELISA: oligosaccharide inhibits fixation of IgM G19-2 on LPS 3a; conditions: for IC50: concentration of oligosaccharide giving 50% inhibition of fixation of the mAb on LPS 3a (S. flexneri 3a), inhibition ELISA; for recognition by the mIgM antibody (and by the mIgGs): summary in words of tables 1 and 2, interaction weaker than with the mIgGs
Protocol: Protocol 2) Ten Balb/C mice and four BP2 mice were immunized by i.p. injection with virulent live bacteria of the strain S. flexneri 3a, every three weeks, using 2×10^6 bacteria for the first 2 immunizations and 5×10^6 for the next 4. As the anti-LPS 3a antibody response was too weak for performing cellular fusion, an additional series of 4 injections was carried out. Two mAbs of type IgM, G19-2 and L18-9, were obtained.
as §1, §2, §3, §4, §5, §6

Row | Molecule | IC50 (mIgG G7-12) | IC50 (mIgG C7-37) | IC50 (IgM (G 19-2)) | recognition by the mIgM antibody (and by the mIgGs) (IgM (G 19-2))
1 | CCCO[C@@H]1O[C@@H](C)[C@H](O)[C@@H](O[C@@H]2O[C@@H](C)[C@H](O)[C@@H](O)[C@H]2O[C@@H]2O[C@@H](C)[C@H](O)[C@@H](O[C@H]3O[C@H](CO)[C@@H](O)[C@H](O)[C@H]3O)[C@H]2O[C@@H]2O[C@H](CO)[C@@H](O)[C@H](O)[C@H]2NC(C)=O)[C@H]1O [DEABC)-OPr, Propyl (2-acetamido-2-deoxy-β-D-glucopyranosyl)-(1→2)-[α-D-glucopyranosyl-(1→3)]-α-L-rhamnopyranosyl-(1→2)-α-L-rhamnopyranosyl-(1→3)-α-L-rhamnopyranoside] | > 2500 µM | > 5000 µM | > 2500 µM | –
2 | Propyl (2/3-O-acetyl-α-L-rhamnopyranosyl)-(1→3)-(2-acetamido-2-deoxy-β-D-glucopyranosyl)-(1→2)-(α-D-glucopyranosyl-(1→3)-α-L-rhamnopyranoside [C(2-OAc)DEA-OPr] | > 2500 µM | > 5000 µM | > 2500 µM | –
3 | CCCO[C@@H]1O[C@@H](C)[C@H](O)[C@@H](O)[C@H]1O[C@@H]1O[C@@H](C)[C@H](O)[C@@H](O[C@H]2O[C@H](CO)[C@@H](O)[C@H](O)[C@H]2O)[C@H]1O[C@@H]1O[C@H](CO)[C@@H](O)[C@H](O)[C@H]1NC(C)=O [DEAB-OPr, Propyl 2-acetamido-2-deoxy-β-D-glucopyranosyl-(1→2)-[α-D-glucopyranosyl-(1→3)]-α-L-rhamnopyranosyl-(1→2)-α-L-rhamnopyranoside] | > 2500 µM | > 5000 µM | > 2500 µM | –
4 | CCCO[C@@H]1OC(C)[C@H](O)C(O)C1O[C@@H]1OC(C)[C@H](O)C(O[C@H]2OC(CO)[C@@H](O)C(O)C2O)C1O[C@@H]1OC(CO)[C@@H](O)C(O[C@@H]2OC(C)[C@H](O)C(O)C2OC(C)=O)C1NC(C)=O (stereo partly drawn) [C(2,3-OAc)D(E)AB-OPr, Propyl (2-O-acetyl-α-L-rhamnopyranosyl)-(1→3)-(2-acetamido-2-deoxy-β-D-glucopyranosyl)-(1→2)-[α-D-glucopyranosyl-(1→3)]-α-L-rhamnopyranosyl-(1→2)-α-L-rhamnoyranoside] | > 2500 µM | > 5000 µM | > 2500 µM | –
5 | CCCO[C@@H]1OC(CO)[C@@H](O)C(O[C@@H]2OC(C)[C@H](O)C(O[C@@H]3OC(C)[C@H](O)C(O)C3O[C@@H]3OC(C)[C@H](O)C(O[C@H]4OC(CO)[C@@H](O)C(O)C4O)C3O)C2OC(C)=O)C1NC(C)=O (stereo partly drawn) [EABC(2-OAc)D-OPr, Propyl α-D-glucopyranosyl-(1→3)-α-L-rhamnopyranosyl-(1→2)-α-L-rhamnopyranosyl-(1→3)-(2-O-acetyl-α-L-rhamnopyranosyl)-(1→3)-2-acetamido-2-deoxy-β-D-glucopyranoside] | 315 µM | 280 µM | 1280 µM | recognized
6 | CCCO[C@@H]1OC(C)[C@H](O)C(O[C@H]2OC(CO)[C@@H](O)C(O)C2O)C1O[C@@H]1OC(CO)[C@@H](O)C(O[C@@H]2OC(C)[C@H](O)C(O[C@@H]3OC(C)[C@H](O)C(O)C3O)C2OC(C)=O)C1NC(C)=O (stereo partly drawn) [BCDEA-Opr-Oac, Propyl α-L-rhamnopyranosyl-(1→3)-(2-O-acetyl-α-L-rhamnopyranosyl)-(1→3)-(2-acetamido-2-deoxy-β-D-glucopyranosyl)-(1→2)-[α-D-glucopyranosyl-(1→3)]-α-L-rhamnopyranoside] | 175 µM | 195 µM | 1980 µM | recognized
7 | CCCO[C@@H]1O[C@@H](C)[C@H](O)[C@@H](O)[C@H]1O[C@@H]1O[C@@H](C)[C@H](O)[C@@H](O[C@H]2O[C@H](CO)[C@@H](O)[C@H](O)[C@H]2O)[C@H]1O [EAB-OPr, Propyl α-D-glucopyranosyl-(1→3)-α-L-rhamnopyranosyl-(1→2)-α-L-rhamnopyranoside] | > 2500 µM | > 5000 µM | > 2500 µM | –
8 | CCCO[C@@H]1O[C@H](CO)[C@@H](O)[C@H](O[C@@H]2O[C@@H](C)[C@H](O)[C@@H](O[C@@H]3O[C@@H](C)[C@H](O)[C@@H](O)[C@H]3O[C@@H]3O[C@@H](C)[C@H](O)[C@@H](O[C@H]4O[C@H](CO)[C@@H](O)[C@H](O)[C@H]4O)[C@H]3O)[C@H]2O)[C@H]1NC(C)=O [EABCD-OPr, Propyl α-D-glucopyranosyl-(1→3)-α-L-rhamnopyranosyl-(1→2)-α-L-rhamnopyranosyl-(1→3)-α-L-rhamnopyranosyl-(1→3)-2-acetamido-2-deoxy-β-D-glucopyranoside] | > 2500 µM | > 1000 µM | > 2500 µM | –
9 | CCCO[C@@H]1OC(C)[C@H](O)C(O[C@H]2OC(CO)[C@@H](O)C(O)C2O)C1O[C@@H]1OC(CO)[C@@H](O)C(O[C@@H]2OC(C)[C@H](O)C(O[C@@H]3OC(C)[C@H](O)C(O)C3O)C2O)C1NC(C)=O (stereo partly drawn) [BCDEA-Opr, Propyl α-L-rhamnopyranosyl-(1→3)-α-L-rhamnopyranosyl-(1→3)-(2-acetamido-2-deoxy-β-D-glucopyranosyl)-(1→2)-[α-D-glucopyranosyl-(1→3)]-α-L-rhamnopyranoside] | > 2500 µM | > 1000 µM | > 2500 µM | –
10 | CCCO[C@@H]1O[C@@H](C)[C@H](O)[C@@H](O[C@@H]2O[C@@H](C)[C@H](O)[C@@H](O)[C@H]2O[C@@H]2O[C@@H](C)[C@H](O)[C@@H](O[C@H]3O[C@H](CO)[C@@H](O)[C@H](O)[C@H]3O)[C@H]2O[C@@H]2O[C@H](CO)[C@@H](O)[C@H](O)[C@H]2NC(C)=O)[C@H]1OC(C)=O [DEABC(2-OAc)-OPr, Propyl (2-acetamido-2-deoxy-β-D-glucopyranosyl)-(1→2)-[α-D-glucopyranosyl-(1→3)]-α-L-rhamnopyranosyl-(1→2)-α-L-rhamnopyranosyl-(1→3)-2-O-acetyl-α-rhamnopyranoside] | > 2500 µM | – | > 2500 µM | –
11 | CCCO[C@@H]1O[C@@H](C)[C@H](O)[C@@H](O[C@@H]2O[C@@H](C)[C@H](O)[C@@H](O)[C@H]2O[C@@H]2O[C@@H](C)[C@H](O)[C@@H](O[C@H]3O[C@H](CO)[C@@H](O)[C@H](O)[C@H]3O)[C@H]2O)[C@H]1OC(C)=O [EABC(2-OAc)-OPr, Propyl α-D-glucopyranosyl-(1→3)-α-L-rhamnopyranosyl-(1→2)-α-L-rhamnopyranosyl-(1→3)-2-O-acetyl-α-L-rhamnopyranoside] | 450 µM | 410 µM | 1430 µM | recognized
12 | CCCO[C@@H]1OC(C)[C@H](O)C(O)C1O[C@@H]1OC(C)[C@H](O)C(O[C@H]2OC(CO)[C@@H](O)C(O)C2O)C1O[C@@H]1OC(CO)[C@@H](O)C(O[C@@H]2OC(C)[C@H](O)C(O[C@@H]3OC(C)[C@H](O)C(O)C3O)C2O)C1NC(C)=O (stereo partly drawn) [BCDEAB-Opr] | > 2500 µM | > 5000 µM | > 2500 µM | –
13 | CCCO[C@@H]1OC(C)[C@H](O)[C@H](O[C@H]2O[C@@H](CO)[C@@H](O)C(O)C2O)C1O[C@@H]1OC(CO)[C@@H](O)C(O)[C@@H]1NC(C)=O (stereo partly drawn) | > 2500 µM | > 5000 µM | > 2500 µM | –
14 | CCCO[C@@H]1O[C@@H](C)[C@H](O)[C@@H](O[C@@H]2O[C@@H](C)[C@H](O)[C@@H](O)[C@H]2O[C@@H]2O[C@@H](C)[C@H](O)[C@@H](O[C@H]3O[C@H](CO)[C@@H](O)[C@H](O)[C@H]3O)[C@H]2O)[C@H]1O [EABC-Opr, Propyl α-D-glucopyranosyl-(1→3)-α-L-rhamnopyranosyl-(1→2)-α-L-rhamnopyranosyl-(1→3)-α-L-rhamnopyranoside] | > 2500 µM | > 5000 µM | > 2500 µM | –
15 | CCCO[C@@H]1OC(C)[C@H](O)C(O)C1O[C@@H]1OC(C)[C@H](O)C(O[C@H]2OC(CO)[C@@H](O)C(O)C2O)C1O[C@@H]1OC(CO)[C@@H](O)C(O[C@@H]2OC(C)[C@H](O)C(O[C@@H]3OC(C)[C@H](O)C(O)C3O)C2OC(C)=O)C1NC(C)=O (stereo partly drawn) [BC(2-OAc)D(E)AB-OPr, Propyl α-L-rhamnopyranosyl-(1→3)-(2-O-acetyl-α-L-rhamnopyranosyl)-(1→3)-(2-acetamido-2-deoxy-β-D-glucopyranosyl)-(1→2)-[α-D-glucopyranosyl-(1→3)]-α-L-rhamnopyranosyl-(1→2)-α-L-rhamnopyranoside] | 205 µM | 230 µM | 2200 µM | recognized

Source: US10087242B2 (INSTITUT PASTEUR, priority 2007, dated 2018)
